Like-named read-outs stand apart in the source and are kept apart here.
How the values were obtained:
clinical [1] = experiment: clinical
Procedure: This analysis compares the appearance and elimination of drug following aerosol and intravenous doses to determine the amount of drug remaining in the lung (absorption compartment) over time. To estimate concentrations of drug in lung, amounts were divided by estimates of the epithelial lung fluid (ELF) volume (25 ml) for each subject. Non-compartmental pharmacokinetic analysis was subsequently applied to these projected concentrations of drug in the lung to determine AUCs.

[2] = Standard kill-curve and in vitro hollow fiber assay; type: cell-based; conditions: high concentrations, 0.018-fold-[…] the MIC evaluated
Excerpt: Fluoroquinolone efficacy in humans, animals and in vitro models of infection is linked to AUC:MIC ratio and Cmax:MIC ratio.

in vivo [3] = conditions: male, Sprague-Dawley, rat, in vivo, 10 mg/kg
Procedure: This example relates to aerosol and intravenous administration of fluoroquinolones in saline. A rat pharmacokinetic model was used to compare intravenous and pulmonary administration of fluoroquinolones. […] Doses were administered via the lateral tail vein, or to the lung just above the tracheal bifurcation using a micro-spray aerosol device (Penn Century, Philadelphia, Pa.).
Approximately 0.3 ml blood samples were taken from 2-6 rats at each timepoint via an indwelling jugular vein cannula, and collected in lithium heparin tubes. Bronchial alveolar lavage (BAL) and lung tissue were collected following euthanasia. […] Sample concentrations were determined against a standard curve.

[4] = Sprague-Dawley, rat, in vivo, 10 mg/kg
in vivo [5] = conditions: Sprague-Dawley, rat, 10 mg/kg
P. aeruginosa = conditions: simulated ELF
P. aeruginosa NH57388A = experiment: Chronic mouse lung infection model; type: in vivo; conditions: mice, twice daily for 72 h
Procedure: Bacterial cells were harvested by centrifugation (23,000×g, 30 min, at 4° C.) and resuspended in 3-6 ml of MHB. The supernatant was collected and placed in 80° C. water-bath for 30 min. […] The precipitated alginate was collected with a sterile bacterial loop and washed several times in sterile saline. The purified alginate was then resuspended in 10 ml of sterile saline and stirred vigorously to form a homogeneous suspension. […] The bacterial suspension was diluted (1:10) in the alginate suspension to yield about 10^8 CFU/ml. […] On day 4, the mice were infected using a curved bead-tipped oral gavage attached to a 1 ml syringe while under isoflurane anesthesia.

clinical [6] = conditions: human, in vivo
[7] = Mouse lung homogenate pharmacokinetics; conditions: IP, 20 mg/kg normalized to 60 mg/kg
Procedure: Mice were sacrificed at 0.08, 0.16, 0.25, 0.5, 0.75, 1.0, 2.0, 3.0, and 4.0 h after dosing and their lungs collected. […] Analytical standards (0.05 to 100 mg/L) were prepared in fresh mouse lung homogenate collected from untreated animals. […] Aliquots of the supernatant (25 μl) were injected directly onto the HPLC using a temperature-controlled autoinjector set at 10° C. Standard curves were constructed of the peak area versus standard concentration, and the data were fit using weighted linear regression (Microsoft Excel, Seattle, Wash.). […] The lung pharmacokinetic parameters were determined using WinNonlin (Pharsight, Mountain View, Calif.).

P. aeruginosa ATCC 27853 = experiment: Acute mouse lung infection model; conditions: mice, 2 doses over 24 h
Procedure: Aerosol Administration of antibiotics: Antibiotics were aerosolized using a microspray aerosol device (MicroSprayer Model IA-C, PennCentury, Philadelphia, Pa.) attached to a FMJ-250 High-Pressure Syringe (PennCentury, Philadelphia, Pa.). […] For administration, each mouse was anesthetized (5% isoflurane in oxygen running at 4 L/min) and positioned securely at a 45-50° angle by the upper teeth, the microspray aerosol tip was inserted to the bifurcation and a 50 μl volume was administered.
The bacterial suspensions were adjusted to approximately 1-6×10^5 CFU/ml by correlation of the absorbance at 600 nm with predetermined plate counts. […] On day 4, mice were infected by intratracheal (IT) instillation of 0.05 ml of inoculum using a curved oral gavage tip attached to a 1 ml syringe. […] Antibiotics were aerosolized using a microspray aerosol device. All infections and aerosol treatments were performed under isoflurane anesthesia (5% isoflurane in oxygen running at 4 L/min). An untreated group of mice (n=8) was sacrificed prior to the initiation of treatment to determine baseline bacterial counts. […] The lungs were removed aseptically and homogenized (Pro200 homogenizer, Pro Scientific, Monroe, Conn.) in 1 ml of sterile saline. Serial 10-fold dilutions of the homogenized lung were plated on Mueller-hinton agar (MHA), and colonies counted.
In addition, due to the need for anesthesia for treatment, the maximum number of daily doses was limited to two.

[8] = serum, 5 minute IV infusion 50 mg, single healthy volunteer

C[C@H]1COc2c(N3CCN(C)CC3)c(F)cc3c(=O)c(C(=O)O)cn1c23 [Levofloxacin, levofloxacin]
Vd (clinical [1]; human, in vivo, iv): 135 L
clearance (clinical [1]; human, in vivo, iv): 266 mL/min
A (clinical [1]; [8]): 2.05 mg/L
B (clinical [1]; [8]): 0.30 mg/L
V2 (clinical [1]; [8]): 114.03 L
time to reach maximum levels of killing [2]: 10 to 20 min
F, % from Lung vs IV (in vivo [3]): 97%
MAT (in vivo [3]): 0 h
AUC (in vivo [3]; inhaled or intranasal): 3000 ng·h/mL
AUC(0-inf) (in vivo [3]; inhaled or intranasal): 3700 ng·h/mL
MRT (in vivo [3]; inhaled or intranasal): 42 min
half-life (in vivo [3]; inhaled or intranasal): 30 min
AUC (in vivo [3]; iv): 1600 ng·h/mL
AUC(0-inf) (in vivo [3]; iv): 3800 ng·h/mL
MRT (in vivo [3]; iv): 42 min
half-life (in vivo [3]; iv): 30 min
F, % from Lung vs IV [4]: 97%
MRT (in vivo [5]; inhaled or intranasal): 42 min
half-life (in vivo [5]; inhaled or intranasal): 30 min
MRT (in vivo [5]; iv): 42 min
half-life (in vivo [5]; iv): 30 min
24 h AUC (P. aeruginosa; 20 mg BID): 700 mg·h/L
Cmax (P. aeruginosa; 20 mg BID): 500 mg/L
24 h AUC (P. aeruginosa; 40 mg BID): 1,400 h · mg/L
Cmax (P. aeruginosa; 40 mg BID): 1,000 mg/L
24 h AUC (P. aeruginosa; 80 mg BID): 2,800 h · mg/L
Cmax (P. aeruginosa; 80 mg BID): 2,000 mg/L
24 h AUC (P. aeruginosa; 120 mg BID): 4,200 h · mg/L
Cmax (P. aeruginosa; 120 mg BID): 3,000 mg/L
log increase in bacterial counts (P. aeruginosa NH57388A; intraperitoneal 15 mg/kg in saline): 0.83 log
log increase in bacterial counts (P. aeruginosa NH57388A; intraperitoneal 30 mg/kg in saline): 0.32 log
log increase in bacterial counts (P. aeruginosa NH57388A; intraperitoneal 60 mg/kg in saline): 0.15 log
AUC(0-inf) (clinical [6]; iv, 50 mg, Serum AUC(0-inf)): 3910 ng·h/mL
Cmax (clinical [6]; iv, 50 mg, Serum Cmax): 2550 ng/mL
half-life (clinical [6]; iv, 50 mg, Serum t1/2, IV 50 mg): 353 min
AUC(0-inf) (clinical [6]; iv, 50 mg, Sputum AUC(0-inf)): 5700 ng·h/mL
Cmax (clinical [6]; iv, 50 mg, Sputum Cmax): 1050 ng/mL
half-life (clinical [6]; po, 750 mg): 402 min
AUC(0-inf) (clinical [6]; po, 750 mg, Serum AUC(0-inf)): 76600 ng·h/mL
Cmax (clinical [6]; po, 750 mg, Serum Cmax): 7300 ng/mL
half-life (clinical [6]; po, 750 mg, Serum t1/2, Oral 750 mg, CF patients): 456 min
AUC(0-inf) (clinical [6]; po, 750 mg, Sputum AUC(0-inf)): 93400 ng·h/mL
Cmax (clinical [6]; po, 750 mg, Sputum Cmax): 8700 ng/mL
AUC (Normalized to 60 mg/kg) [7]: 12.3 mg·h/kg
Cmax (Normalized to 60 mg/kg) [7]: 18.6 mg/kg
reductions in lung bacterial counts (P. aeruginosa ATCC 27853; systemic (IP) 32 mg/kg): 0.65 log CFU
reductions in lung bacterial counts (P. aeruginosa ATCC 27853; systemic (IP) 62.5 mg/kg): 2.7 log CFU

Reference: patent US10722519B2, “Aerosol fluoroquinolone formulations for improved pharmacokinetics” (priority 2008, dated 2020)
